Article PMC8300937, “New azolyl-derivatives as multitargeting agents against breast cancer and fungal infections: synthesis, biological evaluation and docking study” (Journal of Enzyme Inhibition and Medicinal Chemistry, 2021)
In brackets after ≈: the same amount, converted by molar mass. Several values for one entry are separate records, joined by “and”; a condition that tells them apart may be missing. Identical values can stand only once. Like-named read-outs stand apart in the source and are kept apart here.

Columns and labels:
[1] = molecular target: T1, Recombinant human iNOS (Homo sapiens, UniProt P35228); assay: iNOS inhibition, L-citrulline assay with fluorimetric (HPLC) detection; assay type: biochemical; conditions: for iNOS % inhibition: compounds at 1 µM, normalised to 1400 W (positive control, 100% inhibition at 1 μM), triplicate, mean ± SD; for inhibition at 1 µM: read-out: iNOS % inhibition
T1 construct: purchased Enzo Life Sciences, Inc
Experimental: The injection volume was 5 μL.
Recombinant human iNOS was purchased from Enzo Life Sciences, Inc. (New York, USA).

[2] = molecular target: T2, aromatase (CYP19A) (Homo sapiens, UniProt P11511); assay: Aromatase inhibition, fluorimetric assay kit (Aromatase-CYP19A Inhibitor Screening kit, BioVision); assay type: biochemical; conditions: read-out: Aromatase % inhibition
T2 construct: purchased BioVision
T2 sequence (P11511 1-503): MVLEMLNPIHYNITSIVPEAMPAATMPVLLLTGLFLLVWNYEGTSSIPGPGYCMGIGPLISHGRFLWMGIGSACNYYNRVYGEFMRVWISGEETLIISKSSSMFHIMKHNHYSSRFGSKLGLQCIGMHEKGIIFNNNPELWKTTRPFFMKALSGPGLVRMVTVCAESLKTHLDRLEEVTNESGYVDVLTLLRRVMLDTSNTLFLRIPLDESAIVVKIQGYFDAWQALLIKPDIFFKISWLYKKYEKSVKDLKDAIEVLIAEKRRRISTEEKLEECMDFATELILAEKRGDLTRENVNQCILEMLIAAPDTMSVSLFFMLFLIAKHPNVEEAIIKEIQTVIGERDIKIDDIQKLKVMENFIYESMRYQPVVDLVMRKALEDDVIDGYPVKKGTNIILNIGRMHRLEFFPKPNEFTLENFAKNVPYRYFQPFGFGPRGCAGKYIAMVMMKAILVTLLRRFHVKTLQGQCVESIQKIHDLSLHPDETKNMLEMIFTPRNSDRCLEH
Experimental: The aromatase inhibitory activity of the novel compounds was determined using a commercial fluorimetric kit (Aromatase CYP19A Inhibitor Screening kit, BioVision, Milpitas, CA, USA). The assay utilises a fluorogenic aromatase substrate, that is converted into a highly fluorescent metabolite detected in the visible range (Ex/Em = 488/527 nm), ensuring a high signal-to-background ratio with little interference by autofluorescence.

[3] = system: C. albicans ATCC 90028; assay: Antifungal broth microdilution (EUCAST), standard strain; assay type: cell-based; conditions: Candida albicans
Experimental: The antifungal activity of the most representative compounds was evaluated versus one ATCC 90028 strain and 15 clinical isolates belonging to the most clinically relevant Candida spp. (C. albicans, C. tropicalis, and C. glabrata). All strains were stored at −80 °C in Sabouraud Broth (Oxoid LTD, Basingstoke, Hampshire, England) with 20% of glycerine until their use. The strains were grown on Sabouraud CAF agar (Thermo Fisher Scientific Waltham, MA, USA), and incubated for 24–48 h at 37 °C. […] The in vitro antifungal activity was determined by broth microdilution method with RPMI 1640 (Sigma-Aldrich. ST Louis, MO, USA) as recommended by EUCAST, and the E. Def 7.3, method document (http://www.eucast.org). […] Each plate included the following controls: (i) inoculum suspension (growth control), (ii) drug-free medium, (iii) medium with drug, and (iv) distilled water (used for the inoculum preparation). Fluconazole was used as a reference drug according to the EUCAST guidelines. The plates were incubated for 24 h at 37 °C, and then read with a plate reader at 530 nm. […] Three independent experiments were performed in triplicate.

[4] = molecular target: aromatase; conditions: Figure 1; cited from earlier work
[5] = Chemical stability in aqueous media at 37 °C (HPLC); assay type: physicochemical
Experimental: Compounds 2 and 5 contain an ester linkage, therefore their chemical stability was evaluated. Phosphate buffer (pH = 7.4), HCl solution (pH = 2.0), NaOH solution (pH = 9.0) were adopted as media. […] Solutions were kept at 37 °C and monitored for 24 h.
A 0.01 M hydrochloric acid buffer (pH 2), as a non-enzymatic simulated gastric fluid (SGF), a 0.01 M phosphate buffer (pH 7.4) as non-enzymatic simulated intestinal fluid (SIF), and a 0.1 mM sodium hydroxide solution (pH 10) were used in this study. The reactions were initiated by adding 0.1 ml of compound stock solution (1 mg/mL in DMSO) to 1.9 ml aqueous buffer solution, in screw-capped vials at 37 ± 0.5 °C. Samples (5 µL) were withdrawn at appropriate intervals, i.e. after 5 min, 1 h, 2 h, 3 h, 4 h, 6 h, 8 h, and then after 24 h incubation time and analysed by HPLC.

[6] = system: MCF-7 breast cancer cell line; assay: Cell metabolic activity (MTT assay); assay type: cell-based; conditions: Homo sapiens, read-out: IC50 cell metabolic activity (MTT)
Experimental: (§1) Human breast cancer MCF-7 (HTB-22™) cells were purchased from ATCC® and maintained in Dulbecco’s Modified Eagle Medium (DMEM) high glucose supplemented with 10% of foetal bovine serum (FBS) and 1% of penicillin/streptomycin (all from Gibco-Thermofisher Scientific, MD, USA) at 37 °C and 5% CO2.
Cell metabolic activity of MCF-7 human breast cancer cells was assessed by MTT (3–(4,5-dimethylthiazol-2-yl)-2,5-diphenyltetrazolium bromide) test (Sigma Aldrich, Milan, Italy). Cells were seeded (0.1 × 10^4/well) in a 96-well tissue culture-treated plate (Falcon®, Corning Incorporated, NY, USA) and let them adhere for 24 h. Next, the cell monolayer was incubated in the presence of loading concentrations of compounds 2, 5 and 6 (0–400 µM) diluted in DMSO (final concentration 0.2%) for 24, 48 and 72 h. After the exposure time, cells were incubated with 100 μL/well of MTT (5 mg/mL) 1:10 with fresh growth medium (final concentration 0.5 mg/mL) for 4 h at 37 °C and 5% CO2. Finally, the MTT solution was removed and replaced with 100 µL/well of DMSO. Cells were incubated for an additional 20 min at 37 °C and 5% CO2 and afterward gently swirled for 10 min at room temperature. The optical density was measured at 540 nm by means of a spectrophotometer (Multiskan GO, Thermo Scientific, Monza, Italy). Results were expressed as the percentage of cells in the presence of vehicle (DMSO) set as 100% and each experiment was performed in triplicate (n = 3). Concentration-response curves and IC50 were fitted and calculated with the GraphPad Prism 5.0 (GraphPad Software, San Diego, CA, USA)[27].

[7] = system: MCF-7 cell line; assay: Cytotoxicity test (lactate dehydrogenase release); assay type: cell-based, human; conditions: MCF-7, 24 h, DMSO control set as 1
Experimental: as §1
After 24 h, cell supernatants were collected from the MTT plate, centrifuged at 450 × g for 4 min and stored on ice. To quantify the cytotoxicity of loading concentrations of compounds 2, 5 and 6 (0–400 µM), the CytoTox 96® Non-Radioactive Cytotoxicity Assay (Promega Corporation, WI, USA) was performed. The CytoTox 96® Assay quantitatively measures lactate dehydrogenase (LDH), a stable cytosolic enzyme released upon cell lysis. The absorbance signal resulting from the conversion of a tetrazolium salt (iodonitrotetrazolium violet; INT) into a red formazan product was measured at 490 and 690 nm (background) with a spectrophotometer (Multiskan GO, Thermo Scientific, Monza, Italy). The results were normalised on MTT absorbances and expressed as fold increases on the LDH released by cultures in the presence of vehicle (DMSO) set as 1.

[8] = ATCC90028, C. albicans ATCC 90028, 24 h, ≥50% growth inhibition, read-out: MIC

| inhibition at 1 µM [2] [%] | inhibition at 1 µM [1] [%] | MIC [3, 8] [µg/mL] | melting point [°C] | SMILES | also measured |
| --- | --- | --- | --- | --- | --- |
| – | – | – | – | CC(=N)NCc1cccc(CN)c1 [1400 W, reference compound] | iNOS % inhibition [1]: 100% |
| – | – | – | – | OC(Cc1ccccc1)Cn1ccnc1 (centres unmarked) [Compound 1, 1-(1H-imidazol-1-yl)-3-phenylpropan-2-ol] | iNOS % inhibition [1]: complete enzyme inhibition |
| 13 ± 0.5 | 0 | 64 (≈ 180 µM) | 71 to 72 | O=C(OC(Cc1ccccc1)Cn1ccnc1)c1ccc2ccccc2c1 (centres unmarked) [Compound 3, 1-benzyl-2-(1H-imidazol-1-yl)ethyl 2-naphthoate] | – |
| – | – | – | – | COc1ccc(S(=O)(=O)N2CCCC(Cn3ccnc3)C2)cc1Br (centres unmarked) [Compound 3o] | IC50 [4]: 0.006 µM |
| 36 ± 1.2 | 47 ± 1.3 | > 64 | 86 to 87 | O=C(OC(Cc1ccccc1)Cn1ccnc1)c1cccc(C(=O)c2ccccc2)c1 (centres unmarked) [Compound 4, 1-benzyl-2-(1H-imidazol-1-yl)ethyl 3-benzoylbenzoate] | – |
| 72 ± 1.4 | 52 ± 0.7 | > 64 | – | O=C(NCc1ccccc1)OC(Cc1ccccc1)Cn1ccnc1 (centres unmarked) [Compound 6, 1-benzyl-2-(1H-imidazol-1-yl)ethyl benzylcarbamate] | IC50 ([6]; MCF7, MCF-7, 24 h exposure): > 400 µM |
| 15 ± 0.3 | 7 ± 0.08 | > 64 | – | COc1ccc(NC(=S)OC(Cc2ccccc2)Cn2ccnc2)c(OC)c1 (centres unmarked) [Compound 7, O-[1-benzyl-2-(1H-imidazol-1-yl)ethyl] (2,4-dimethoxyphenyl)thiocarbamate] | – |
| 54 ± 0.9 | 12 ± 0.1 | – | 120 to 121 | COc1cc(C)ccc1NC(=S)OC(Cc1ccccc1)Cn1ccnc1 (centres unmarked) [Compound 8, O-[1-benzyl-2-(1H-imidazol-1-yl)ethyl] (2-methoxy-4-methylphenyl)thiocarbamate] | – |
| 29 ± 1.5 | 27 ± 0.4 | – | 72 to 73 | O=S(=O)(c1ccccc1)N1CCCC(Cn2cncn2)C1 (centres unmarked) [Compound 13, 1-(phenylsulfonyl)-3-(1H-1,2,4-triazol-1-ylmethyl)piperidine] | – |
| 32 ± 1.2 | 22 ± 0.5 | – | – | Cc1ccc(S(=O)(=O)N2CCCC(Cn3cncn3)C2)cc1 (centres unmarked) [Compound 14, 1-[(4-methylphenyl)sulphonyl]-3-(1H-1,2,4-triazol-1-ylmethyl)piperidine] | – |
| 62 ± 2.8 | 18 ± 0.1 | – | – | COc1ccc(S(=O)(=O)N2CCCC(Cn3cncn3)C2)c(OC)c1 (centres unmarked) [Compound 15, 1-[(2,4-dimethoxyphenyl)sulphonyl]-3-(1H-1,2,4-triazol-1-ylmethyl)piperidine] | – |
| 63 ± 3.1 | 47 ± 0.3 | > 64 | – | O=[N+]([O-])c1cccc(S(=O)(=O)N2CCCC(Cn3cncn3)C2)c1 (centres unmarked) [Compound 16, 1-[(3-nitrophenyl)sulphonyl]-3-(1H-1,2,4-triazol-1-ylmethyl)piperidine] | – |
| 25 ± 1.3 | 39 ± 0.2 | > 64 | 105 to 106 | Cc1ccc(S(=O)(=O)N2CCCC(Cn3cncn3)C2)cc1[N+](=O)[O-] (centres unmarked) [Compound 17, 1-[(4-methyl-3-nitrophenyl)sulphonyl]-3-(1H-1,2,4-triazol-1-ylmethyl)piperidine] | – |
| 55 ± 1.1 | 14 ± 0.2 | > 64 | 81 to 82 | N#Cc1ccc(S(=O)(=O)N2CCCC(Cn3cncn3)C2)c(Cl)c1 (centres unmarked) [Compound 18, 3-chloro-4-{[3-(1H-1,2,4-triazol-1-ylmethyl)piperidin-1-yl]sulphonyl}benzonitrile] | – |
| 48 ± 1.7 | 16 ± 0.7 | – | 95 to 96 | N#Cc1ccc(S(=O)(=O)N2CCCC(Cn3cncn3)C2)cc1 (centres unmarked) [Compound 19, 4-{[3-(1H-1,2,4-triazol-1-ylmethyl)piperidin-1-yl]sulphonyl}benzonitrile] | – |
| 61 ± 2.1 | 0 | – | – | CC(=O)Nc1ccc(S(=O)(=O)N2CCCC(Cn3cncn3)C2)cc1 (centres unmarked) [Compound 20, N-(4-{[3-(1H-1,2,4-triazol-1-ylmethyl)piperidin-1-yl]sulphonyl}phenyl)acetamide] | – |
| – | – | 0.25 (≈ 0.816 µM) | – | OC(Cn1cncn1)(Cn1cncn1)c1ccc(F)cc1F [Fluconazole, reference compound] | – |

| SMILES | inhibition at 1 µM [2] [%] | inhibition at 1 µM [1] [%] | MIC [3, 8] [µg/mL] | melting point [°C] | also measured |
| --- | --- | --- | --- | --- | --- |
| O=C(OC(Cc1ccccc1)Cn1ccnc1)c1cc([N+](=O)[O-])cc([N+](=O)[O-])c1 (centres unmarked) [Compound 5, 1-benzyl-2-(1H-imidazol-1-yl)ethyl 3,5-dinitrobenzoate] | 82 ± 3.8 | 100 ± 1.7 | – | 144 to 145 | iNOS % inhibition [1]: complete enzyme inhibition; Chemical stability in acidic medium ([5]; HCl solution pH = 2.0, 37 °C, monitored for 24 h): stable; Chemical stability in neutral medium ([5]; Phosphate buffer pH = 7.4, 37 °C, monitored for 24 h): stable; half-life at 0.05 mg/mL ([5]; buffer, NaOH solution pH = 9.0, 37 °C, read-out: half-life of hydrolysis in basic medium): 39 min; IC50 ([6]; MCF7, 24 h): 120 µM; IC50 ([6]; MCF7, 48 h): 82.5 µM; IC50 ([6]; MCF7, 72 h): 68.8 µM; LDH released, fold increase vs control ([7]; 10 µM (lowest concentration tested)): 1.91 folds; LDH released, fold increase vs control ([7]; concentrations after the IC50 (120 µM)): 6.25 folds and 7.50 folds; MIC ([3]; ATCC90028, 24 h): > 64 µg/mL |
| N#Cc1ccc(C(c2ccc(C#N)cc2)n2cncn2)cc1 [letrozole, reference compound] | 100 | – | – | – | – |
